Test results: BindingDB's records for doi:10.1016/j.bmcl.2009.03.071 (Wyeth Research, 2009)

Experiments:
Test in all cases: Radioligand Binding Assay (Ki)
Conditions in all cases: pH 7.4; 22 °C
[1] = biological target: T1, 5-hydroxytryptamine receptor 2C (Homo sapiens, UniProt P28335)
T1 sequence (P28335 whole entry): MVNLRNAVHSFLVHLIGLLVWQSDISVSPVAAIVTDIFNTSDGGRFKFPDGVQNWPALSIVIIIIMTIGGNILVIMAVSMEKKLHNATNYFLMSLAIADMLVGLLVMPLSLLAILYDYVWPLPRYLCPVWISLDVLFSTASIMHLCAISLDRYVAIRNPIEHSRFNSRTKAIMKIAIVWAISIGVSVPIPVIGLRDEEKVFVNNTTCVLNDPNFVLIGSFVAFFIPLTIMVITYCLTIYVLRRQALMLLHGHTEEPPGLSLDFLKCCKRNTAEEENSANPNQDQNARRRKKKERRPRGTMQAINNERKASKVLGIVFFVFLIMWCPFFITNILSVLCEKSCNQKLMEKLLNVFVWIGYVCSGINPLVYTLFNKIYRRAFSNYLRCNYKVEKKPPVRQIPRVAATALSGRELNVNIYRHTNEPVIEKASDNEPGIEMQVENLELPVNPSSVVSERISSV
Method: (§1) Competition experiments were performed in the presence radioligand with membrane protein (obtained from cells expressing the receptor) and test compounds. The mixture was incubated at room temperature for 60 min and the reaction stopped by rapid filtration onto a 96-well GF/B filter using a Packard Filtermate harvester. Radioactivity retained on the filters was measured by liquid scintillation in a Packard TopCount. IC50 values for test compounds were determined from nonlinear regression analysis of data collected from ligand binding experiments. The inhibition constant (Ki) was calculated from IC50 value by the Cheng and Prusoff equation.

[2] = biological target: 5-hydroxytryptamine receptor 2B (Homo sapiens, UniProt P41595)
Method: as §1

[3] = biological target: 5-hydroxytryptamine receptor 7 (Homo sapiens, UniProt P34969)
Method: as §1

[4] = biological target: T2, 5-hydroxytryptamine receptor 1A (Homo sapiens, UniProt P08908)
T2 sequence (P08908 whole entry): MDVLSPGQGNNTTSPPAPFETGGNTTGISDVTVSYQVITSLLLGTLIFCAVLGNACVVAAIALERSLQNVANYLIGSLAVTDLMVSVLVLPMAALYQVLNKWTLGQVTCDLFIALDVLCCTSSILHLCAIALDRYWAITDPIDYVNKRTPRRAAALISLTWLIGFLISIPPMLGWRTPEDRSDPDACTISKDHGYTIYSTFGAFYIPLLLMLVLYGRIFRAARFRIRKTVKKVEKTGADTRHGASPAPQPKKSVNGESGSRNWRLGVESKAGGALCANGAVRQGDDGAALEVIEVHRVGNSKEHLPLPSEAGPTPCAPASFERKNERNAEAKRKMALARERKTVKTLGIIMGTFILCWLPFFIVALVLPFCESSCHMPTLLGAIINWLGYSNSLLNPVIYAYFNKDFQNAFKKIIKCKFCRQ
Method: as §1

[5] = biological target: 5-hydroxytryptamine receptor 1B (Homo sapiens, UniProt P28222)
Method: as §1

[6] = biological target: 5-hydroxytryptamine receptor 1D (Homo sapiens, UniProt P28221)
Method: as §1

D(2) dopamine receptor = D(2) dopamine receptor (Homo sapiens, UniProt P14416)
Method: as §1

Sequence of 5-hydroxytryptamine receptor 2B (P41595 whole entry): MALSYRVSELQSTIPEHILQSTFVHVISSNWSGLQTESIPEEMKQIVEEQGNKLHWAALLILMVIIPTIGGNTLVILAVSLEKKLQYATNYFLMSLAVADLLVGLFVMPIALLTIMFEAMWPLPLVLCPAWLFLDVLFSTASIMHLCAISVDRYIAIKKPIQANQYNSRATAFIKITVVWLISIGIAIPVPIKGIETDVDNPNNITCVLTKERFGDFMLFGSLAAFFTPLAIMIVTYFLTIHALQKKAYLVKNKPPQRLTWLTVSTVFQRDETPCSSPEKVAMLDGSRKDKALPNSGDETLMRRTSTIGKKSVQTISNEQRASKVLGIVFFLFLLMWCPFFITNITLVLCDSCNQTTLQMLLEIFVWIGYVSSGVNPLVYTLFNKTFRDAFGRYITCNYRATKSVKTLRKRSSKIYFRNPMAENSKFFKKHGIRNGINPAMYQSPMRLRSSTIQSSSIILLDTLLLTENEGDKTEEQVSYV
Sequence of D(2) dopamine receptor (P14416 whole entry): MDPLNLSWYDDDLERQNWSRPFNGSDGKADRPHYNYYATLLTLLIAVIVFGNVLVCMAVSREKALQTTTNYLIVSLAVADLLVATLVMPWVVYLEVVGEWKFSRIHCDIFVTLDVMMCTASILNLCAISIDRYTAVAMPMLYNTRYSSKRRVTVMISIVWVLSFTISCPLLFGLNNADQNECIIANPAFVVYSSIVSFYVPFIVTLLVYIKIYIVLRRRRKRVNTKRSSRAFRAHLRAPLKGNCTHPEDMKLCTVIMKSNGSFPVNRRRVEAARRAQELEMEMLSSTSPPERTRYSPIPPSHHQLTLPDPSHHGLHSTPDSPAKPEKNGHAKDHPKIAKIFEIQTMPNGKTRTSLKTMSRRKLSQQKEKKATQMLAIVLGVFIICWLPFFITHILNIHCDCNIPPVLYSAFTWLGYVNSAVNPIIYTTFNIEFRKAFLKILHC
Sequence of 5-hydroxytryptamine receptor 1D (P28221 whole entry): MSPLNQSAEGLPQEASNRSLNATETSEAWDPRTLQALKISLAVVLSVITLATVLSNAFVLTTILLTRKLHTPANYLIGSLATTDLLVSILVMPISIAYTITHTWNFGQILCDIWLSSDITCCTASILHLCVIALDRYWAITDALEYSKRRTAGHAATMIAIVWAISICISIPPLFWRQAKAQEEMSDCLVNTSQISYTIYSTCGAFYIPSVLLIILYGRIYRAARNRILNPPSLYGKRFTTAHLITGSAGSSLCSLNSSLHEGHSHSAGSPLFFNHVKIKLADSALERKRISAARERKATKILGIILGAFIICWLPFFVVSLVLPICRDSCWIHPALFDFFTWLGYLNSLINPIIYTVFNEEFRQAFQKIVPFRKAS
Sequence of 5-hydroxytryptamine receptor 1B (P28222 whole entry): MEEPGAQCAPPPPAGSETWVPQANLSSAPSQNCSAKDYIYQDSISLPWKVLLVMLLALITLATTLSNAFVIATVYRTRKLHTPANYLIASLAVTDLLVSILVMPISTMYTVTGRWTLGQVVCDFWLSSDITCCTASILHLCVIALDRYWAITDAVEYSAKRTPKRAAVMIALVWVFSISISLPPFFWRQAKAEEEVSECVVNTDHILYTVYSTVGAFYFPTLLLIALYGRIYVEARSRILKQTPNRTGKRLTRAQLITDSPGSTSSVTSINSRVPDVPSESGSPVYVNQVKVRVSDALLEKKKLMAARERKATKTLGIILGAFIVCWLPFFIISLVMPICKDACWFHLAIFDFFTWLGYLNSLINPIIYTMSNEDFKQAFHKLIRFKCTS
Sequence of 5-hydroxytryptamine receptor 7 (P34969 whole entry): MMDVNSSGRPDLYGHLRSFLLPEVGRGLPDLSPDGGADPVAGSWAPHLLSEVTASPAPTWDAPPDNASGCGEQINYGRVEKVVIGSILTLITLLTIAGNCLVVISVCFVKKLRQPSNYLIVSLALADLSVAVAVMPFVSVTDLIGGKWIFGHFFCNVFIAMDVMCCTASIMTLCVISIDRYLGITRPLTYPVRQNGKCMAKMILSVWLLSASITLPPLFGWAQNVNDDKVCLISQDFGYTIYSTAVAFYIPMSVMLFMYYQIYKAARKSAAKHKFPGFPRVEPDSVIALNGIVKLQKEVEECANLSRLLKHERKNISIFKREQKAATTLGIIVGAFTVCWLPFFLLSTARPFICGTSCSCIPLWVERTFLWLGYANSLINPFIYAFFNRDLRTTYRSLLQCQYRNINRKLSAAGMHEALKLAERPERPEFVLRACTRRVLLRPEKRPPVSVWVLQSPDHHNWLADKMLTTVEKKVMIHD

- Ki [1]: > 2000 nM
- Ki [2]: 155 nM
- Ki [3]: 5100 nM
- Ki [4]: 6400 nM
- Ki [5]: > 2000 nM
- Ki [6]: > 2000 nM
- Ki (D(2) dopamine receptor): > 2000 nM
SMILES: NCCC(=O)Nc1ccc2cnn(S(=O)(=O)c3cccc4ccccc34)c2c1 [3-amino-N-[1-(naphthalene-1-sulfonyl)-1H-indazol-6-yl]propanamide]
